# Patent US20220144823A1, “PYRAZOLOPYRIDINE DERIVATIVES AS INHIBITORS OF PASK” (Galapagos NV, priority 2019, published 2022)
# What was measured:
# [1] = molecular target: T1, human PASK (Homo sapiens, UniProt Q96RG2); experiment: 33P radioactive kinase assay; format: biochemical; conditions: 33P radioactive PASK kinase assay, 10 μM ATP, ZIPtide 1 μM
# T1 construct: purchased ThermoFisher Scientific PR7013A
# Procedure: The principle of the ^33P radioactive kinase assay consists in measuring the incorporated ^33P into the ZIPtide peptide substrate when phosphorylated by human PASK using [^33P]-[…]-ATP and ATP, which correlates with kinase activity.
# The test compounds are prepared as a serial dilution of 10 point dose responses with 1/5 dilution steps in 100% DMSO starting from 0.2 or 2 mM highest concentration, diluted 1/20 in water and 5 μL is transferred to the assay plates (Greiner, Cat #651201).
# (§1) 1% DMSO and 10 μM staurosporine final concentrations are used respectively as negative and positive controls.
# 11 μL of enzyme-substrate mixture is added on the assay plates. The reactions are started by adding 9 μL ATP mixture, consisting of non-labeled and ^33P-labeled ATP, on the assay plates.
# The reactions are stopped by adding 25 μL phosphoric acid (150 mM) to the reactions.
# The completely terminated kinase reactions are transferred using a harvester on pre-wetted UniFilter-96 plates (UniFilter-96 GF/B, PerkinElmer Inc., Cat #6005177).
# After harvesting the kinase reactions, the filter plates are washed 6 times with phosphoric acid (75 mM). The back of the UniFilter-96 plates are sealed and 40 μL MicroScint-20 (PerkinElmer Inc., Cat #6013621) is added to each well. The top of each plate is sealed with TopSeal-A (PerkinElmer Inc., Cat #6050185). Read-out is performed with a TopCount instrument (PerkinElmer Inc.).
# Raw data are generated following the read-out performed on the TopCount, used to calculate percentage inhibition (PIN) values and plotted to generate dose response curves and derive the average half maximal inhibitory concentrations (IC50) reported in Table VI.
# [2] = molecular target: T1, human PASK; experiment: ADP-Glo kinase assay; format: biochemical; conditions: ADPGlo PASK kinase assay, 25 μM ATP, ZIPtide 25 μM
# Procedure: The ADP-Glo™ kinase assay is a luminescent technology assay which measures the ADP formed from a kinase reaction. In this specific study, the kinase reactions consisted of the phosphorylation of the ZIPtide peptide substrate by human recombinant PASK. In a second step the kinase reaction is terminated and all the remaining ATP is depleted. In a final step the ADP is converted into ATP and this newly synthesized ATP is measured by using a luciferase/luciferin reaction. The generated light is measured using an Envision plate reader, wherein the luminescent signal obtained positively correlates with the kinase activity.
# The test compounds are prepared as a serial dilution of 10 point dose responses with 1/5 dilution steps in 100% DMSO starting from 2 mM highest concentration, diluted 1/20 in water and 1 μL is transferred to the assay plates (PerkinElmer Inc., Cat #6007290).
# as §1
# 2 μL enzyme-substrate mixture is added to the assay plates.
# The reaction is started by adding 2 μL diluted ATP on the assay plates immediately after addition of the enzyme-substrate mixture to the compound. Plates are centrifuged for a few seconds at 1000 rpm and gently shaken for 2 min followed by an incubation at RT for 120 min.
# The reactions are stopped and the unconsumed ATP is depleted by adding 5 μL ADP-Glo Reagent (Promega, Cat #V912B) to the reaction. The plates are centrifuged for a few seconds at 1000 rpm and incubated at RT for 40 min (ATP depletion).
# The ADP is converted to ATP and luciferase and luciferin is introduced to detect ATP by adding 10 μL Kinase Detection Reagent (Promega, Cat #V913B+V914B) to the reaction. The plates are centrifuged for a few seconds at 1000 rpm and incubated at RT for 30 min (ADP detection).
# Luminescence is measured on an Envision plate reader (PerkinElmer Inc.).
# Raw data are generated following the read-out performed on the Envision plate reader, used to calculate percentage inhibition (PIN) values and plotted to generate dose response curves and derive the average half maximal inhibitory concentrations (IC50) reported in Table VIII.
# T1 sequence (Q96RG2 whole entry): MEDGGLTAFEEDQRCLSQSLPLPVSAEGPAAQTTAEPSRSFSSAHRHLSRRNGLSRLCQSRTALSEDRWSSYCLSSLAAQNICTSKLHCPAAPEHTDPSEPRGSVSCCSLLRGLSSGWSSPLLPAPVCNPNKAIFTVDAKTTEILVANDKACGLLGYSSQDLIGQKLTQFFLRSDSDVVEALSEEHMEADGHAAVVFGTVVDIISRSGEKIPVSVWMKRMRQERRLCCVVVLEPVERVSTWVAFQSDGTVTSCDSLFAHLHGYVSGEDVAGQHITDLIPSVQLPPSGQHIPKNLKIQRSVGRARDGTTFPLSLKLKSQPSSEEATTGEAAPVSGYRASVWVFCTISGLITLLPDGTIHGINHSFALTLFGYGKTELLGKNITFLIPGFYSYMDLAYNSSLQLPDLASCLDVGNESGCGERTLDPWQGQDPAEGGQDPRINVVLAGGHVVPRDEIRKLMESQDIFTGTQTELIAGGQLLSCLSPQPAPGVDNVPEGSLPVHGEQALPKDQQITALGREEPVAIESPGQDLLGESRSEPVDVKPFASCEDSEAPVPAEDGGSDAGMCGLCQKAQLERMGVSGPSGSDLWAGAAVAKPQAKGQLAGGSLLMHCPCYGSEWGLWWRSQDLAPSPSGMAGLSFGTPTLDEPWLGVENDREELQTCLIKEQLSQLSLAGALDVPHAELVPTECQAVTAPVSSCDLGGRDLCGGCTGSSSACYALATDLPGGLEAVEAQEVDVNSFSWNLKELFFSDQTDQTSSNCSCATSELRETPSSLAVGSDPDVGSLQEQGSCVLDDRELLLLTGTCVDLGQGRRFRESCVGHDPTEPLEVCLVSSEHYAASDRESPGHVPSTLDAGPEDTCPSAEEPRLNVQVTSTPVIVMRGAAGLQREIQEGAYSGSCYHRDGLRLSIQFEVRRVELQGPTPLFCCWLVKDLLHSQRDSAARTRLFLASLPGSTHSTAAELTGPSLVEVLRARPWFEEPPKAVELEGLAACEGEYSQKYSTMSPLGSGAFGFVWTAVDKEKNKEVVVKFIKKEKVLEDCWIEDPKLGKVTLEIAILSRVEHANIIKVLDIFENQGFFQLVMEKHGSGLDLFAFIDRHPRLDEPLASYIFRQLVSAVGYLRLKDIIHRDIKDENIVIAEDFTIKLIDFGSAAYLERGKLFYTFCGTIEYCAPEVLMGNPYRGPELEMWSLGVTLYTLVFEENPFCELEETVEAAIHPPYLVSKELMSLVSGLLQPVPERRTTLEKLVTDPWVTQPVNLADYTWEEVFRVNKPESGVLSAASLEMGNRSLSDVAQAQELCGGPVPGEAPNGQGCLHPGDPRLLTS
Structure (SMILES),IC50 [1],IC50 [2]
"Cn1cc(-c2cnn3ccc(-c4cc(C(=O)O)c(C(=O)Nc5ccccc5)o4)cc23)cn1 [Cpd 1, 5-[3-(1-methylpyrazol-4-yl)pyrazolo[1,5-a]pyridin-5-yl]-2-(phenylcarbamoyl) furan-3-carboxylic acid]",0.01 to 10 nM,
"Cn1cc(-c2cnn3ccc(-c4cc(C(=O)O)co4)cc23)cn1 [Cpd 3, 5-[3-(1-methylpyrazol-4-yl)pyrazolo[1,5-a]pyridin-5-yl]furan-3-carboxylic acid]",10 to 100 nM,
"COC(=O)c1coc(-c2ccn3ncc(-c4c(C)nn(C)c4C)c3c2)c1 [Cpd 5, methyl 5-[3-(1,3,5-trimethylpyrazol-4-yl)pyrazolo[1,5-a]pyridin-5-yl]furan-3-carboxylate]",10 to 100 nM,
"CCOC(=O)c1coc(-c2ccn3ncc(-c4c(C)nn(C)c4C)c3c2)c1 [Cpd 6, ethyl 5-[3-(1,3,5-trimethylpyrazol-4-yl)pyrazolo[1,5-a]pyridin-5-yl]furan-3-carboxylate]",10 to 100 nM,
"Cc1nn(C)c(C)c1-c1cnn2ccc(-c3cc(C(=O)OCC(=O)N(C)C)co3)cc12 [Cpd 7, [2-(dimethylamino)-2-oxo-ethyl] 5-[3-(1,3,5-trimethylpyrazol-4-yl)pyrazolo[1,5-a]pyridin-5-yl]furan-3-carboxylate]",10 to 100 nM,
"COc1nc(-c2ccn3ncc(-c4c(C)nn(C)c4C)c3c2)sc1C(N)=O [Cpd 11, 4-methoxy-2-[3-(1,3,5-trimethylpyrazol-4-yl)pyrazolo[1,5-a]pyridin-5-yl]thiazole-5-carboxamide]",0.01 to 10 nM,
"Cc1nn(C)c(C)c1-c1cnn2ccc(-c3cc(C(=O)O)c(C)o3)cc12 [Cpd 16, 2-methyl-5-[3-(1,3,5-trimethylpyrazol-4-yl)pyrazolo[1,5-a]pyridin-5-yl]furan-3-carboxylic acid]",0.01 to 10 nM,
"Cc1noc(C)c1-c1cnn2ccc(-c3cc(C(=O)O)c(C)o3)cc12 [Cpd 19, 5-[3-(3,5-dimethylisoxazol-4-yl)pyrazolo[1,5-a]pyridin-5-yl]-2-methyl-furan-3-carboxylic acid]",0.01 to 10 nM,
"Cc1nn(C)c(C)c1-c1cnn2ccc(-c3cc(C(=O)NS(C)(=O)=O)co3)cc12 [Cpd 21, N-methylsulfonyl-5-[3-(1,3,5-trimethylpyrazol-4-yl)pyrazolo[1,5-a]pyridin-5-yl]furan-3-carboxamide]",10 to 100 nM,
"Cc1nn(C)c(C)c1-c1cnn2ccc(-c3cc(C(=O)NS(=O)(=O)C4CC4)co3)cc12 [Cpd 22, N-cyclopropylsulfonyl-5-[3-(1,3,5-trimethylpyrazol-4-yl)pyrazolo[1,5-a]pyridin-5-yl]furan-3-carboxamide]",10 to 100 nM,
"Cc1noc(C)c1-c1cnn2ccc(-c3ncc(C(=O)O)o3)cc12 [Cpd 24, 2-[3-(3,5-dimethylisoxazol-4-yl)pyrazolo[1,5-a]pyridin-5-yl]oxazole-5-carboxylic acid]",0.01 to 10 nM,
"Cc1noc(C)c1-c1cnn2ccc(-c3ncc(C(=O)O)s3)cc12 [Cpd 25, 2-[3-(3,5-dimethylisoxazol-4-yl)pyrazolo[1,5-a]pyridin-5-yl]thiazole-5-carboxylic acid]",0.01 to 10 nM,
"CCc1oc(-c2ccn3ncc(-c4c(C)nn(C)c4C)c3c2)cc1C(=O)O [Cpd 26, 2-ethyl-5-[3-(1,3,5-trimethylpyrazol-4-yl)pyrazolo[1,5-a]pyridin-5-yl]furan-3-carboxylic acid]",0.01 to 10 nM,
"Cc1noc(C)c1-c1cnn2ccc(-c3nc(OC(C)C)c(C(=O)O)s3)cc12 [Cpd 56, 2-[3-(3,5-dimethylisoxazol-4-yl)pyrazolo[1,5-a]pyridin-5-yl]-4-isopropoxy-thiazole-5-carboxylic acid]",,0.01 to 10 nM
"Cc1c(-c2cnn3ccc(-c4nc(C(=O)O)co4)cc23)c(C(F)(F)F)nn1C [Cpd 57, 2-[3-[1,5-dimethyl-3-(trifluoromethyl)pyrazol-4-yl]pyrazolo[1,5-a]pyridin-5-yl]oxazole-4-carboxylic acid]",,0.01 to 10 nM
"Cc1noc(C)c1-c1cnn2ccc(-c3nc(OC4COC4)c(C(=O)O)s3)cc12 [Cpd 58, 2-[3-(3,5-dimethylisoxazol-4-yl)pyrazolo[1,5-a]pyridin-5-yl]-4-(oxetan-3-yloxy) thiazole-5-carboxylic acid]",,0.01 to 10 nM
"COCCOc1nc(-c2ccn3ncc(-c4c(C)noc4C)c3c2)sc1C(=O)O [Cpd 59, 2-[3-(3,5-dimethylisoxazol-4-yl)pyrazolo[1,5-a]pyridin-5-yl]-4-(2-methoxyethoxy) thiazole-5-carboxylic acid]",,0.01 to 10 nM
"CCOCCOc1nc(-c2ccn3ncc(-c4c(C)noc4C)c3c2)sc1C(=O)O [Cpd 60, 2-[3-(3,5-dimethylisoxazol-4-yl)pyrazolo[1,5-a]pyridin-5-yl]-4-(2-ethoxyethoxy) thiazole-5-carboxylic acid]",,0.01 to 10 nM
"Cc1noc(C)c1-c1cnn2ccc(-c3nc(OC(F)F)c(C(=O)O)s3)cc12 [Cpd 61, 4-(difluoromethoxy)-2-[3-(3,5-dimethylisoxazol-4-yl)pyrazolo[1,5-a]pyridin-5-yl]thiazole-5-carboxylic acid]",,0.01 to 10 nM
"COc1nn(-c2ccn3ncc(-c4c(C)noc4C)c3c2)cc1C(=O)O [Cpd 63, 1-[3-(3,5-dimethylisoxazol-4-yl)pyrazolo[1,5-a]pyridin-5-yl]-3-methoxy-pyrazole-4-carboxylic acid]",,10 to 100 nM
"Cc1nn(C)c(C)c1-c1cnn2ccc(-n3cc(C(=O)O)cn3)cc12 [Cpd 73, 1-[3-(1,3,5-trimethylpyrazol-4-yl)pyrazolo[1,5-a]pyridin-5-yl]pyrazole-4-carboxylic acid]",,0.01 to 10 nM
"CCn1nc(C)c(-c2cnn3ccc(-n4cc(C(=O)O)c(OC)n4)cc23)c1C [Cpd 75, 1-[3-(1-ethyl-3,5-dimethyl-pyrazol-4-yl)pyrazolo[1,5-a]pyridin-5-yl]-3-methoxy-pyrazole-4-carboxylic acid]",,0.01 to 10 nM
"Cc1nn(C(C)C)c(C)c1-c1cnn2ccc(-n3cc(C(=O)O)c(C(F)(F)F)n3)cc12 [Cpd 80, 1-[3-(1-isopropyl-3,5-dimethyl-pyrazol-4-yl)pyrazolo[1,5-a]pyridin-5-yl]-3-(trifluoromethyl)pyrazole-4-carboxylic acid]",,10 to 100 nM
"Cc1nn(CC(F)(F)F)c(C)c1-c1cnn2ccc(-n3cc(C(=O)O)c(C(F)(F)F)n3)cc12 [Cpd 81, 1-[3-[3,5-dimethyl-1-(2,2,2-trifluoroethyl)pyrazol-4-yl]pyrazolo[1,5-a]pyridin-5-yl]-3-(trifluoromethyl)pyrazole-4-carboxylic acid]",,0.01 to 10 nM
"COc1nn(-c2ccn3ncc(-c4c(C)nn(C(F)F)c4C)c3c2)cc1C(N)=O [Cpd 83, 1-[3-[1-(difluoromethyl)-3,5-dimethyl-pyrazol-4-yl]pyrazolo[1,5-a]pyridin-5-yl]-3-methoxy-pyrazole-4-carboxamide]",,0.01 to 10 nM
"CCOC(=O)c1sc(-c2ccn3ncc(-c4c(C)nn(C)c4C)c3c2)nc1OC [Cpd 87, ethyl 4-methoxy-2-[3-(1,3,5-trimethylpyrazol-4-yl)pyrazolo[1,5-a]pyridin-5-yl]thiazole-5-carboxylate]",,100 to 500 nM
"CCOC(=O)c1sc(-c2ccn3ncc(-c4c(C)nn(C)c4C)c3c2)nc1OCC [Cpd 88, ethyl 4-ethoxy-2-[3-(1,3,5-trimethylpyrazol-4-yl)pyrazolo[1,5-a]pyridin-5-yl]thiazole-5-carboxylate]",,100 to 500 nM
